Data taken from ChEMBL document CHEMBL1128890, “Synthesis and antifungal activities of optically active isomers of SM-8668” (1995).
Converted amounts (≈) assume the structure as drawn.

Legend:
Format in all cases: functional
[1] = tested on: Candida albicans; assay: Minimum inhibitory concentration required for in vitro antifungal activity against Candida albicans KB-8 strain
[2] = tested on: Mus musculus; assay: Effective dose against Aspergillus fumigatus MTU6001 strain after po administration in murine
[3] = tested on: Mus musculus; assay: Effective dose against Candida albicans KB-8 strain after po administration in murine
[4] = tested on: Aspergillus fumigatus; assay: Minimum inhibitory concentration required for in vitro antifungal activity against Aspergillus fumigatus MTU6001 strain
[5] = tested on: Mus musculus; assay: Effective dose against Candida albicans KB-8 strain after iv administration in murine
[6] = tested on: Mus musculus; assay: Effective dose against Aspergillus fumigatus MTU6001 strain after iv administration in murine

MIC [1]	MIC [4]	Structure (SMILES)	ED50 [2]	ED50 [3]	ED50 [5]	ED50 [6]
50 µg/mL (≈ 151 µM)	> 800 µg/mL	C[C@@H]([C@@](O)(Cn1cncn1)c1ccc(F)cc1F)S(C)(=O)=O	> 125 mg/kg	> 100 mg/kg	> 25 mg/kg	> 25 mg/kg
0.2 µg/mL (≈ 0.604 µM)	12.5 µg/mL (≈ 37.7 µM)	CC(C(O)(Cn1cncn1)c1ccc(F)cc1F)S(C)(=O)=O (racemic)	18 mg/kg	0.38 mg/kg		
0.1 µg/mL (≈ 0.302 µM)	6.25 µg/mL (≈ 18.9 µM)	C[C@H]([C@](O)(Cn1cncn1)c1ccc(F)cc1F)S(C)(=O)=O [GENACONAZOLE]	4.1 mg/kg	0.27 mg/kg	0.26 mg/kg	5.3 mg/kg
